The source of these data is patent US20260184702A1, “SYNTHESIS, PHARMACOLOGY AND USE OF NEW WATER-SOLUBLE AND SELECTIVE FMS-LIKE TYROSINE KINASE3 (FLT3) INHIBITORS” (Universität Regensburg, priority 2022, published 2026).

SMILES strings stand for the structures. In brackets after ≈: the same amount, converted by molar mass.

Data set [1] in a line: Solubility test by UV-Vis spectroscopy of saturated solutions. The format is physicochemical. Conditions: for Solubility Ethanol [g/L] / Solubility Water [g/L]: saturated solution; for Solubility Water [g/L]: ultrapure water. The procedure, abridged: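 Solubility was measured by UV-Vis spectroscopy on an Agilent Cary 60 over 800-200 nm, using a scan rate of 300.0 nm/min, a 0.50 nm data interval, 0.10 s averaging time and a 10 mm cuvette. Filtered saturated supernatants were diluted into water:ethanol, read at the long-wave absorbance maximum against a calibration curve of at least 6 concentrations, in triplicate.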

Data set [2] concerns subcutaneous MV4-11 CDX model. Conditions: female, NOD/SCID, mouse, in vivo, 5 days.
The test system of data set [3] is EOL-1 (acute myeloid eosinophilic leukemia). Conditions: Sellmer et al. 2020; cited from earlier work.
The test system of data set [4] is MOLM-13 (acute myeloid leukemia). Conditions: Sellmer et al. 2020; cited from earlier work.
In data set [5] the test system is MONO-MAC-1 (acute monocytic leukemia). Conditions: Sellmer et al. 2020; cited from earlier work.
For data set [6], the system named is MONO-MAC-6 (acute monocytic leukemia). Conditions: Sellmer et al. 2020; cited from earlier work.
Data set [7] deals with subcutaneous MV4-11 CDX model. The data set is described as follows: In vivo efficacy study in subcutaneous MV4-11 CDX model in NOD/SCID mice. Conditions: 50 mg/kg po daily 5 days.

For `CC(C)(C)c1cc(NC(=O)Nc2ccc(-c3cn4c(n3)sc3cc(OCCN5CCOCC5)ccc34)cc2)no1` [Quizartinib, reference compound], the solubility in data set [1] (DMSO, organic solvent or mixture, solvent DMSO, read-out: Solubility DMSO) is 33.2 mg/mL (≈ 59.2 mM). In data set [1], the “Solubility Ethanol [g/L]” value is recorded as “no or at most very poor solubility” and the “Solubility Water [g/L]” value is reported as “no or at most very poor solubility”. For the same compound, in data set [1] (listed as AC220), the “Solubility Ethanol [g/L]” value is on record as “Practical” and the “Solubility Water [g/L]” value is listed as “Practical”. Further, in data set [2], the “study day after which mice had to be sacrificed” value turned out to be 6 days. Also, in data set [3], the IC50 is 0.0001 µM. The IC50 in data set [4] is 0.007 µM. In data set [5], the half-inhibitory concentration (IC50) was 0.006 µM. Besides, the IC50 in data set [6] is 0.004 µM. The “first death(s) (day of study)” value in data set [7] is 600000 s. Also, in data set [7] (5 mice), the “number of living subjects, day of study 5” value is listed as 5; the “number of living subjects, day of study 6” value stood at 5; the “number of living subjects, day of study 8” value turned out to be 3; the “number of living subjects, day of study 13” value is 3. Also, in data set [7] (5 mice), the “number of living subjects, day of study 26” value came to 3 and the “number of living subjects, day of study 36” value is 3.

What is called solubility is how much of the substance goes into solution per volume. What is called IC50 is the concentration needed to halve the response being measured.
